Experimental data: PMC7413254 (Nature Communications, 2020)
Read-outs that look alike come from different tables or passages of the source.

Tests used:
non-expressing oocytes [1] = format: cell-based, Xenopus laevis; conditions: total [3H]CQ transport; for Uptake of [3H]CQ (% non-expressing oocyte control), trans-stimulation: non-expressing oocytes, normalised to the oocyte type control; for Uptake of [3H]CQ (% PfCRTDd2 control), trans-stimulation, non-expressing oocytes: mean ± SEM, SEM
Procedure, shortened: (§1)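 Oocytes (ten per treatment, ≥4 independent frogs/days) were preloaded by injecting VF-6 in 25 nL ND96 at pH 5.0, 5.5, 6.0 or 7.0, or Na^+-free choline buffer, then uptake run 1.5 h, 27.5 °C, ND96 pH 5.5 by default. Internal concentrations assumed ~400 nL oocyte volume.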

PfCRT [2] = assay: Test of solutes as potential co-substrates for influx of VF-6 via PfCRT into the oocyte; format: cell-based, Plasmodium falciparum; design: key: X: Compounds that have been tested as potential co-substrates but are not required for influx of VF-6 via PfCRT into the oocyte; conditions: X = tested
PfCRT^Dd2 [3] = biological target: T1, PfCRT^Dd2 (Plasmodium falciparum, UniProt Q9N623, A220S/I356T/K76T/M74I/N326S/N75E/Q271E/R371I); assay: cell-based; format: cell-based; conditions: […]; for activity at 45000 µM: [test solute]i = 45 mM (30 mM for some solutes due to solubility)
T1 sequence (Q9N623 whole entry A220S/I356T/K76T/M74I/N326S/N75E/Q271E/R371I): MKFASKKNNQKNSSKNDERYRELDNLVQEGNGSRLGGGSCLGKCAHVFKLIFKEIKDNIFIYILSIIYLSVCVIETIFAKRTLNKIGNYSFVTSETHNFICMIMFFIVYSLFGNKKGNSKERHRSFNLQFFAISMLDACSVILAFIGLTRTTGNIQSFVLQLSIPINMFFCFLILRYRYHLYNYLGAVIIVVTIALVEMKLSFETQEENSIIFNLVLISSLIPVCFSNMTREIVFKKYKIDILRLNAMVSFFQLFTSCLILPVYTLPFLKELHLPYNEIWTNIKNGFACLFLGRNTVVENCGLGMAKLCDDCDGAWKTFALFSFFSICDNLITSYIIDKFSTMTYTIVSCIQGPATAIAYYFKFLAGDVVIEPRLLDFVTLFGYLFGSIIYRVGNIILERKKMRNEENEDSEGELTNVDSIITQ
Procedure, shortened: as §1

PfCRT^3D7 [4] = biological target: T2, PfCRT^3D7 (Plasmodium falciparum, UniProt Q8IBZ9); assay: cell-based; format: cell-based
T2 sequence (Q8IBZ9 59-398): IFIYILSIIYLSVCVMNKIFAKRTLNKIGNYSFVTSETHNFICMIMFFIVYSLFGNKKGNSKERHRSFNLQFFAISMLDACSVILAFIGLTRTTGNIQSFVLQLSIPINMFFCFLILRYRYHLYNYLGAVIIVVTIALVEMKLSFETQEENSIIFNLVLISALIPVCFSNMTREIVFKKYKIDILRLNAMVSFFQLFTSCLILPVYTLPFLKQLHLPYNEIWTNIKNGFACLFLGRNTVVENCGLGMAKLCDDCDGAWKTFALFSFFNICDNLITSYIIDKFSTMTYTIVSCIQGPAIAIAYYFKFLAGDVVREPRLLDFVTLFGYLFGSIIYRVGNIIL
Procedure, shortened: as §1

PfNT1 = biological target: T3, PfNT1 (Plasmodium falciparum, UniProt Q8IDM6); assay: cell-based; format: cell-based; conditions: […], read-out: Uptake of [3H]CQ (% PfCRTDd2 control), trans-stimulation, PfNT1; SEM
T3 construct: expressed in transfected cells; host or cells: Xenopus laevis oocytes (stage V-VI), cRNA-injected
T3 sequence (Q8IDM6 whole entry): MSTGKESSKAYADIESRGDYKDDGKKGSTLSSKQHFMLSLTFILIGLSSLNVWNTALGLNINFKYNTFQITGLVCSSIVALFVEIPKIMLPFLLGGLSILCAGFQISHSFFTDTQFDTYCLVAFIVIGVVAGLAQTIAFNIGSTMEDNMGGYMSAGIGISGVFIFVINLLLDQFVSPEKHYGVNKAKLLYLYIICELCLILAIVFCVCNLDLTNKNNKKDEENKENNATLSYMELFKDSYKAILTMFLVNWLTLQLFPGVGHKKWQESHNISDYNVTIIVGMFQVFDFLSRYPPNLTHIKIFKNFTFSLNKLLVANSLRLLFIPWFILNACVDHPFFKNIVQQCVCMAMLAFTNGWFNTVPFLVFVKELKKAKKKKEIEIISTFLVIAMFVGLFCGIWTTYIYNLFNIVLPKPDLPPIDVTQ
Procedure, shortened: as §1

PfCRT^Ecu1110 [5] = biological target: T4, PfCRT^Ecu1110 (Plasmodium falciparum, UniProt Q9N623, A220S/I356L/K76T/N326D); assay: cell-based; format: cell-based; conditions: […]
T4 sequence (Q9N623 whole entry A220S/I356L/K76T/N326D): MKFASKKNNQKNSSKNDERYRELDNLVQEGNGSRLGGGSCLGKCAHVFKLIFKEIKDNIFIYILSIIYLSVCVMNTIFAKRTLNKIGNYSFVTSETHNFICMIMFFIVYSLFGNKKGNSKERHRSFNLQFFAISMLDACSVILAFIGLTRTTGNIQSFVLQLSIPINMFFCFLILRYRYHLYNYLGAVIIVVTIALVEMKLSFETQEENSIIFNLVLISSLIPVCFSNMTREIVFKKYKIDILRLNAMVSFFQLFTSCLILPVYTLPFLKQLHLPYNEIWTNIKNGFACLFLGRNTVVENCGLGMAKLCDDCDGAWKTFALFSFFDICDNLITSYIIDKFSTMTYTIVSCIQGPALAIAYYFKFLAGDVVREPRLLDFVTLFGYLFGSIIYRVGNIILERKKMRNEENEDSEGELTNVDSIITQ
Procedure, shortened: as §1

PfCRT^3D7 [6] = biological target: T2, PfCRT^3D7; assay: cell-based; format: cell-based; conditions: total [3H]CQ transport; for inhibition at 500 µM: [test solute] = 0.5 mM; for inhibition at 1000 µM: [test solute] = 1 mM; for inhibition at 2000 µM: [test solute] = 2 mM
Procedure, shortened: (§2)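 Transport runs from the acidic bath into the cytosol, analogous to PfCRT-mediated efflux out of the vacuole. Non-expressing oocytes act as background.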

PfCRT [7] = assay: Potential co-substrates tested for influx of VF-6 via PfCRT into the oocyte; format: cell-based, Plasmodium falciparum; design: key: X: Compounds that have been tested as potential co-substrates but are not required for influx of VF-6 via PfCRT into the oocyte
PfCRT^Dd2 [8] = biological target: T1, PfCRT^Dd2; assay: [3H]CQ uptake into Xenopus oocytes, cis-inhibition by unlabelled solute; format: cell-based
Procedure, shortened: as §2

PfCRT^Ecu1110 [9] = biological target: T4, PfCRT^Ecu1110; assay: as above; format: cell-based
Procedure, shortened: as §2

non-expressing oocytes [10] = assay: cells; format: cell-based, Xenopus laevis; conditions: Xenopus laevis, total [3H]CQ transport; for inhibition at 500 µM: [test solute] = 0.5 mM; for inhibition at 1000 µM: [test solute] = 1 mM; for inhibition at 2000 µM: [test solute] = 2 mM
Procedure, shortened: as §2

[11] = PfCRT3D7 oocytes, normalised to the oocyte type control, read-out: Uptake of [3H]CQ (% PfCRT3D7 control), cis-inhibition
[12] = mean ± SEM, SEM, read-out: Uptake of [3H]CQ (% PfCRTDd2 control), cis-inhibition, PfCRT3D7
[13] = read-out: PfCRT-mediated [3H]CQ transport, cis-inhibition (% PfCRTDd2 control)
[14] = read-out: Uptake of [3H]CQ (% PfCRTDd2 control), cis-inhibition
[15] = read-out: Uptake of [3H]CQ (% PfCRTDd2 control), cis-inhibition, PfCRTDd2, SEM
[16] = read-out: [3H]CQ transport (% PfCRTDd2 control), cis-inhibition, PfCRTDd2, SEM
[17] = read-out: PfCRT-mediated [3H]CQ transport, cis-inhibition (% PfCRTEcu1110 control)
[18] = read-out: Uptake of [3H]CQ (% PfCRTDd2 control), cis-inhibition, PfCRTEcu1110, SEM
[19] = read-out: Uptake of [3H]CQ (% PfCRTEcu1110 control), cis-inhibition
[20] = read-out: [3H]CQ transport (% PfCRTEcu1110 control), cis-inhibition, PfCRTEcu1110, SEM
[21] = Oocyte, mean ± SEM, SEM, read-out: Uptake of [3H]CQ (% PfCRTDd2 control), cis-inhibition, non-expressing oocytes
[22] = non-expressing oocytes, normalised to the oocyte type control, read-out: Uptake of [3H]CQ (% non-expressing oocyte control), cis-inhibition

## N[C@@H](CCC(=O)O)C(=O)O [L-glutamic acid]
non-expressing oocytes [1]; [test solute]i = 5 mM
  Uptake of [3H]CQ (% non-expressing oocyte control), trans-stimulation: 99 ± 2.1 % non-expressing oocyte control
non-expressing oocytes [1]; [test solute]i = 45 mM (30 mM for some solutes due to solubility)
  Uptake of [3H]CQ (% non-expressing oocyte control), trans-stimulation: 99 ± 3.3 % non-expressing oocyte control
non-expressing oocytes [1]; [test solute]i = 5 mM (intracellular)
  Uptake of [3H]CQ (% PfCRTDd2 control), trans-stimulation, non-expressing oocytes: 3.1 ± 0.08 % PfCRTDd2 control
non-expressing oocytes [1]; [test solute]i = 45 mM (intracellular; 30 mM for some solutes due to solubility)
  Uptake of [3H]CQ (% PfCRTDd2 control), trans-stimulation, non-expressing oocytes: 2.9 ± 0.05 % PfCRTDd2 control
PfCRT [2]
  Tested as potential co-substrate but not required for influx of VF-6 via PfCRT into the oocyte: X
PfCRT^Dd2 [3]; pH 5.5, read-out: PfCRT-mediated [3H]CQ transport, trans-stimulation (% PfCRTDd2 control), [test solute]i = 5 mM (intracellular), PfCRTDd2 oocytes, normalised to oocyte type control
  activity at 5000 µM: 99 ± 3.5%
PfCRT^Dd2 [3]; pH 5.5, read-out: Uptake of [3H]CQ (% PfCRTDd2 control), trans-stimulation, PfCRTDd2, total [3H]CQ transport, [test solute]i = 5 mM (intracellular), mean ± SEM, SEM
  activity at 5000 µM: 101 ± 2.2%
PfCRT^Dd2 [3]; pH 5.5, read-out: Uptake of [3H]CQ (% PfCRTDd2 control), trans-stimulation, PfCRTDd2 oocytes, [test solute]i = 5 mM, total [3H]CQ transport, normalised to the oocyte type control
  activity at 5000 µM: 101 ± 2.2%
PfCRT^Dd2 [3]; pH 5.5, read-out: Uptake of [3H]CQ (% PfCRTDd2 control), trans-stimulation, PfCRTDd2 oocytes, total [3H]CQ transport, normalised to the oocyte type control
  activity at 45000 µM: 96 ± 2.8%
PfCRT^Dd2 [3]; pH 5.5, read-out: [3H]CQ transport (% PfCRTDd2 control), trans-stimulation, PfCRTDd2, trans-stimulation, [test solute]i = 5 mM (injected), PfCRT-mediated component (background subtracted), mean ± SEM, SEM
  activity at 5000 µM: 99 ± 3.5%
PfCRT^Dd2 [3]; pH 5.5, read-out: [3H]CQ transport (% PfCRTDd2 control), trans-stimulation, PfCRTDd2, trans-stimulation, PfCRT-mediated component (background subtracted), mean ± SEM, SEM
  activity at 45000 µM: 94 ± 4.2%
PfCRT^3D7 [4]; PfCRT3D7 oocytes, [test solute]i = 5 mM, total [3H]CQ transport, normalised to the oocyte type control, read-out: Uptake of [3H]CQ (% PfCRT3D7 control), trans-stimulation
  activity at 5000 µM: 101 ± 2.6%
PfCRT^3D7 [4]; SEM
  [3H]CQ transport (% PfCRT3D7 control), trans-stimulation, PfCRT3D7: 0.4 ± 0.02 % PfCRT3D7 control
PfCRT^3D7 [4]; [test solute]i = 5 mM (intracellular), PfCRT3D7 oocytes, normalised to oocyte type control, read-out: PfCRT-mediated [3H]CQ transport, trans-stimulation (% PfCRT3D7 control)
  activity at 5000 µM: 99 ± 3.9%
PfCRT^3D7 [4]; SEM, read-out: Uptake of [3H]CQ (% PfCRTDd2 control), trans-stimulation, PfCRT3D7
  activity at 45000 µM: 3.3 ± 0.02%
PfCRT^3D7 [4]; read-out: PfCRT-mediated [3H]CQ transport, trans-stimulation (% PfCRT3D7 control)
  activity at 45000 µM: 97 ± 1.8%
PfCRT^3D7 [4]; read-out: Uptake of [3H]CQ (% PfCRT3D7 control), trans-stimulation
  activity at 45000 µM: 99 ± 2.6%
PfCRT^3D7 [4]; total [3H]CQ transport, [test solute]i = 5 mM (intracellular), mean ± SEM, SEM, read-out: Uptake of [3H]CQ (% PfCRTDd2 control), trans-stimulation, PfCRT3D7
  activity at 5000 µM: 3.4 ± 0.02%
PfNT1
  activity at 5000 µM: 2.7 ± 0.06%
PfCRT^Ecu1110 [5]; pH 5.5, read-out: PfCRT-mediated [3H]CQ transport, trans-stimulation (% PfCRTEcu1110 control), [test solute]i = 5 mM (intracellular), PfCRTEcu1110 oocytes, normalised to oocyte type control
  activity at 5000 µM: 97 ± 2.4%
PfCRT^Ecu1110 [5]; pH 5.5, read-out: Uptake of [3H]CQ (% PfCRTEcu1110 control), trans-stimulation, PfCRTEcu1110 oocytes, [test solute]i = 5 mM, total [3H]CQ transport, normalised to the oocyte type control
  activity at 5000 µM: 99 ± 3.6%
PfCRT^Ecu1110 [5]; pH 5.5, read-out: Uptake of [3H]CQ (% PfCRTEcu1110 control), trans-stimulation, PfCRTEcu1110 oocytes, [test solute]i = 45 mM (30 mM for some solutes due to solubility), total [3H]CQ transport, normalised to the oocyte type control
  activity at 45000 µM: 100 ± 3.7%
PfCRT^Ecu1110 [5]; read-out: Uptake of [3H]CQ (% PfCRTDd2 control), trans-stimulation, PfCRTEcu1110, total [3H]CQ transport, [test solute]i = 5 mM (intracellular), mean ± SEM, SEM
  activity at 5000 µM: 35 ± 1.5%
PfCRT^Ecu1110 [5]; read-out: Uptake of [3H]CQ (% PfCRTDd2 control), trans-stimulation, PfCRTEcu1110, total [3H]CQ transport, [test solute]i = 45 mM (intracellular; 30 mM for some solutes due to solubility), mean ± SEM, SEM
  activity at 45000 µM: 36 ± 2.1%
PfCRT^3D7 [6]; [11]
  inhibition at 500 µM: 100 ± 3.8%
  inhibition at 1000 µM: 101 ± 5.2%
  inhibition at 2000 µM: 98 ± 5.7%
PfCRT^3D7 [6]; [12]
  inhibition at 500 µM: 2.2 ± 0.01%
  inhibition at 1000 µM: 2.8 ± 0.03%
  inhibition at 2000 µM: 3.2 ± 0.08%
PfCRT [7]
  Tested as potential co-substrate but not required for influx of VF-6 via PfCRT into the oocyte: X
PfCRT^Dd2 [8]; [13]
  inhibition at 500 µM: 96 ± 4.7%
  inhibition at 1000 µM: 94 ± 4.2%
  inhibition at 2000 µM: 94 ± 2.9%
PfCRT^Dd2 [8]; [14]
  inhibition at 1000 µM: 96 ± 2.5%
  inhibition at 2000 µM: 96 ± 3.3%
PfCRT^Dd2 [8]; [15]
  inhibition at 500 µM: 98 ± 2.7%
  inhibition at 1000 µM: 96 ± 2.5%
  inhibition at 2000 µM: 96 ± 3.3%
PfCRT^Dd2 [8]; [16]
  inhibition at 500 µM: 96 ± 4.7%
  inhibition at 1000 µM: 94 ± 4.2%
  inhibition at 2000 µM: 94 ± 2.9%
PfCRT^Ecu1110 [9]; [17]
  inhibition at 500 µM: 92 ± 4.5%
  inhibition at 1000 µM: 93 ± 5.1%
PfCRT^Ecu1110 [9]; [18]
  inhibition at 500 µM: 31 ± 1.5%
  inhibition at 1000 µM: 31 ± 2%
  inhibition at 2000 µM: 32 ± 1.9%
PfCRT^Ecu1110 [9]; [19]
  inhibition at 500 µM: 94 ± 3.5%
  inhibition at 1000 µM: 96 ± 2.4%
  inhibition at 2000 µM: 99 ± 4.6%
PfCRT^Ecu1110 [9]; [20]
  inhibition at 500 µM: 28 ± 0.8%
  inhibition at 1000 µM: 28 ± 0.6%
  inhibition at 2000 µM: 29 ± 0.4%
non-expressing oocytes [10]; [21]
  inhibition at 500 µM: 2.5 ± 0.05%
  inhibition at 1000 µM: 2.7 ± 0.07%
  inhibition at 2000 µM: 3.8 ± 0.07%
non-expressing oocytes [10]; [22]
  inhibition at 500 µM: 98 ± 4.7%
  inhibition at 1000 µM: 98 ± 3.7%
  inhibition at 2000 µM: 98 ± 5.2%
